Measurements taken from patent US20090105206A1, “Copper Melphalan And Copper Tegafur As Anti-Tumor Agents” (priority 2004, published 2009).
Where “and” joins values, the source holds several entries; their conditions need not be identical. Equal entries are not always repeated.

Assays:
[1] = in water: light blue coloring of the solution, foam on shaking
[2] = system: murine renal cell carcinoma (RENCA) tumor cells applied orthotopically; test: Example 4: orthotopic renal cell carcinoma model (RENCA), treatment Day 1-7; primary tumor, metastases, vessel density (anti-CD31); type: in vivo, Balb/c mouse; conditions: Melphalan 16.4 μmol/kg (5 mg/kg/d) i.p. Day 1-7, individual animals
Protocol: (§1) The tests were carried out on a murine renal cell carcinoma model (RENCA) of the Balb/c mouse. The tumor cells were applied orthotopically into the left-hand renal capsule of syngenic mice. The effect of the treatment carried out on a primary tumor (in the implanted kidney), metastases (predominantly in the lungs, spleen and intestinal lymph nodes) and vessel density were investigated.
(§2) After anesthesia by means of isoflurane narcosis (O2— flow approx. 2.0 l with 0.5-1.5% isoflurane) a small incision was made in the mouse's left flank. The kidney was prepared and presented free from the peritoneum. A 27 G needle was introduced via the lower kidney pole through to below the renal capsule with visual inspection, and […] in 70 μl aliquots respectively applied once. The occurrence of a visible liquid-filled blister between kidney parenchyma and renal capsule and the discoloration of the kidneys were regarded as criteria for successful application. The kidney was subsequently reset and the incision into the abdominal wall closed by means of fascia stitches and cutaneous stitches with absorbable stitching material. Five test groups with ten animals respectively were formed. Group 1 negative control, group 2 positive control melphalan (Glaxo), group 3 and 4 MOC melphalan 2.5 mg/kg and 5 mg/kg. In the case of group 5 an antiangiogenically effective substance was applied as the positive control. The start of treatment was fixed for day 1 post op. for Cu(melphalan)2. Treatment was carried out daily up to day seven (see treatment model). The test was ended after 19 days since, owing to their size, the control tumors required termination for ethical reasons.
• The implantation day was counted as day 0. • Duration of the test 19 days. • Number of animals at beginning of test 50, no animals died during the op.
(§3) After selecting the animals the tissues to be examined were quickly transferred into liquid nitrogen and then frozen at −80° C. 5-10 μm thick sections were prepared from the tissue parts. The preparations were immunohistochemically dyed with an anti-CD31 antibody (Pecam-1) and the number of vessels in the control and treatment groups counted. Two sections of each tumor with three areas respectively were used for counting the vessels.

[3] = system: murine renal cell carcinoma (RENCA) tumor cells applied orthotopically; test: Example 5: orthotopic RENCA model, late treatment from Day 10; type: in vivo, Balb/c mouse
Protocol: as §1, §2, §3
The study report matches that of Example 4, differing only in terms of treatment intervals and dose groups. Four test groups with ten animals respectively were formed. Group 1 negative control, group 2 positive control melphalan (Glaxo), groups 3 and 4 Cu(melphalan)2 5 mg/kg and 7.5 mg/kg. The start of treatment was fixed for day 10 post op. for all groups. The intention was for daily treatment from day 10 until day 17 (see treatment model). Owing to toxicities the treatment period was reduced to day 10-14. After 18 days the test was ended since, owing to their size, the control tumors required termination for ethical reasons.
• The implantation day was counted as day 0. • Duration of the test 18 days. • Number of animals at beginning of test 40; no animals died during the op.

[4] = system: OVCAR-3/P19 tumor cells; test: Example 6: NOD/SCID mice s.c. injected with OVCAR-3 tumor cells; type: in vivo, female NOD/SCID mice; design: Vol (tumor volume) Day 20 / Vol (tumor volume) Day 30 / Vol (tumor volume) Day 37: unit: cm^3
Protocol: 2×10^6 OVCAR-3/P19 tumor cells were s.c. injected into female NOD/SCID mice. The mice were treated as follows.
The treatment began with a mean tumor volume of 80 mm^3.
To level possible differences in tumor volume at the start of treatment in the individual groups and to make evident differences owing to the low absolute volumes in the treatment groups, the relative tumor volumes (RTV) have been analyzed. The relative tumor volume results from the ratio of the volume on day x and the tumor volume at the start of treatment in the same test animal. […] The tumor growth was stopped in group 2 after just 7 days. After 3 days of constant tumor volume a tumor regression began from day 30 (10th day of treatment) in the test animals treated with copper-melphalan.

[5] = Melphalan 16.4 μmol/kg (5 mg/kg/d) i.p. Day 10-14, day 18, individual animals
[6] = Gr. 2, 5 mg/kg melphalan i.p., individual animals
[7] = Gr. 2, 5 mg/kg melphalan i.p., n = 8
[8] = Gr. 2, 5 mg/kg melphalan i.p., n = 8, baseline

O=c1[n-]c(=O)n(C2CCCO2)cc1F.O=c1[n-]c(=O)n(C2CCCO2)cc1F.[Cu+2] (centres unmarked) [Cu(tegafur)2]
solubility behavior [1]: substantially matched that of a copper(II) salt

N[C@@H](Cc1ccc(N(CCCl)CCCl)cc1)C(=O)O [Melphalan, 4-[bis-(2-chloroethyl)-amino]-L-phenylalanine]
Kidney weight ([2]; day 19): 1.70 gr and 0.38 gr and 0.44 gr and 0.13 gr and 1.02 gr and 1.23 gr and 0.12 gr and 0.34 gr and 0.40 gr and 0.65 gr
Lung weight ([2]; day 19): 0.12 gr (2×) and 0.20 gr and 0.13 gr and 0.76 gr and 0.10 gr and 0.25 gr and 0.48 gr and 0.22 gr and 0.14 gr
Number of intestinal lymph node metastases ([2]; day 19): 0 (6×) and 9 and 2 and 8 and 5
Number of lung metastases ([2]; day 19): 7 and 273 and 1 and >750 (2×) and 28 (2×) and 5 and 640 and 328
Kidney volume ([2]; test ended day 19): 2.69 cm^3 and 0.58 cm^3 and 1.3 cm^3 and 0.28 cm^3 and 1.76 cm^3 and 2.00 cm^3 and 0.37 cm^3 and 0.77 cm^3 and 1.26 cm^3 and 1.60 cm^3
Kidney weight [3, 5]: 2.77 gr and 1.38 gr and 0.69 gr and 2.91 gr and 1.90 gr (2×) and 1.63 gr and 2.11 gr and 1.45 gr and 1.13 gr
Lung weight [3, 5]: 0.14 gr and 0.15 gr and 0.13 gr (2×) and 0.28 gr and 0.11 gr and 0.38 gr and 0.10 gr and 0.31 gr
Number of intestinal lymph node metastases [3, 5]: 91 and 0 (3×) and 49 and 17 and 22 and 32 and 84
Number of lung metastases (late treatment day 10-14) [3, 5]: 304 and 614 and 317 and 5 and 750 (3×) and 71 and 500 and 46
Vessel density, later start of treatment day 10-14 ([3]; Melphalan 16.4 μmol/kg (5 mg/kg/d) i.p. Day 10-14, individual sections): 36 (2×) and 28 and 42 and 41 and 68 and 35 and 47 and 32 and 37 and 64 and 62 and 40 (2×) and 34
Kidney volume ([3]; Melphalan 16.4 μmol/kg (5 mg/kg/d) i.p. from Day 10 (planned 10-17, reduced to 10-14), test ended day 18, individual animals): 3.94 cm^3 and 2.59 cm^3 and 2.08 cm^3 and 4.25 cm^3 and 2.84 cm^3 and 2.20 cm^3 and 3.91 cm^3 and 3.63 cm^3 and 2.80 cm^3 and 3.23 cm^3
Vol (tumor volume) Day 20 ([4]; Gr. 2, 5 mg/kg melphalan i.p. days 21-37 every 2nd day, Day 20 = start of treatment (baseline), individual animals): 0.04 (2×) and 0.03 and 0.10 (2×) and 0.20 and 0.05 and 0.12
RTV (relative tumor volume) Day 20 ([4]; Gr. 2, 5 mg/kg melphalan i.p., Day 20 = start of treatment (baseline), individual animals): 1.00
RTV (relative tumor volume) Day 30 [4, 6]: 2.75 and 3.00 and 1.40 and 1.75 and 3.20 and 1.42 and 2.20 and 2.50
RTV (relative tumor volume) Day 37 [4, 6]: 1.98 and 2.37 and 0.81 and 1.05 and 1.66 and 0.82 and 1.71 and 1.18
Vol (tumor volume) Day 30 [4, 6]: 0.11 and 0.09 and 0.14 and 0.35 and 0.16 and 0.17 and 0.22 and 0.10
Vol (tumor volume) Day 37 [4, 6]: 0.08 (3×) and 0.07 and 0.21 and 0.10 and 0.17 and 0.05
RTV Day 30, mean [4, 7]: 2.28
RTV Day 30, median [4, 7]: 2.35
RTV Day 37, mean [4, 7]: 1.45
RTV Day 37, median [4, 7]: 1.42
Vol Day 30, mean [4, 7]: 0.17
Vol Day 30, median [4, 7]: 0.15
Vol Day 37, mean [4, 7]: 0.11
Vol Day 37, median [4, 7]: 0.08
RTV Day 20, mean [4, 8]: 1.00
RTV Day 20, median [4, 8]: 1.00
Vol Day 20, mean [4, 8]: 0.09
Vol Day 20, median [4, 8]: 0.08
mice with RTV>1 on day 37 ([4]; Gr. 2, 5 mg/kg melphalan, 6 of 8 mice): 75%
tumor regression / growth at the end of treatment ([4]; Gr. 2, 5 mg/kg melphalan, range over test animals): between 20% tumor regression and 98% growth
